Data from PubChem BioAssay (NCI).
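1) Cells in 96-well plates. 2) Compound, 48 h, 5 concentrations. 3) Linear interpolation between surrounding doses. 4) Unreached endpoint = highest concentration. GI50 = concentration required for 50% inhibition of growth. At the TGI there is no net growth.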

How the values were obtained:
Assay in all cases: DTP human tumour cell line panel, 48 h
HCC-2998 colon = system: HCC-2998 colon
CCRF-CEM leukemia = system: CCRF-CEM leukemia
SK-MEL-2 melanoma = system: SK-MEL-2 melanoma
A549 NSCLC = system: A549 NSCLC
ACHN renal = system: ACHN renal
A498 renal = system: A498 renal
M14 melanoma = system: M14 melanoma
T-47D breast = system: T-47D breast
NCI-H522 lung = system: NCI-H522 lung

SMILES	TGI (HCC-2998 colon) [µM]	TGI (CCRF-CEM leukemia) [µM]	TGI (SK-MEL-2 melanoma) [µM]	TGI (A549 NSCLC) [µM]	TGI (ACHN renal) [µM]	TGI (A498 renal) [µM]	TGI (M14 melanoma) [µM]	TGI (T-47D breast) [µM]	TGI (NCI-H522 lung) [µM]	GI50 (CCRF-CEM leukemia) [µM]
CC(C)C(N)C(=O)NC(CCC(=O)NCCCCC(N)C(=O)NCCCNc1ccc([N+](=O)[O-])c2[nH]c3ccccc3c(=O)c12)C(N)=O (centres undefined)	> 100	> 100	> 100	> 100	> 100	> 100	> 100	> 100		
CCOC(=O)c1ccc(Nc2nc3ccc(C(F)(F)F)cc3nc2C(=O)OCC)cc1	> 100	> 100		> 100	> 100	> 100	> 100	> 100	> 100	
COC(=O)N1N=C(c2ccccc2)C1c1ccccc1 (centres undefined)	> 100	> 100	> 100	> 100		> 100	> 100	> 100		
c1ccc(C2CC(=NC3CCCCC3)Nc3ccccc3N2)cc1 (centres undefined)		> 100	> 100	> 100	> 100	93.7	> 100		78.1	
C=CC(=O)N1C/C(=C\c2ccc(Cl)cc2)C(=O)/C(=C/c2ccc(Cl)cc2)C1	0.739		2.85	1.64	1.02	1.25	0.735	6.85		
CN(C)CCCNC(=O)c1c(O)c2ccccc2n(C)c1=O	> 100	> 100	> 100	> 100	> 100	> 100		> 100	> 100	
O=C1C(C(O)(C(F)(F)F)C(F)(F)F)CCC1C(O)(C(F)(F)F)C(F)(F)F (centres undefined)		> 100	11	> 65.4	> 61.5	6.23	47	2.13	18.9	
Cc1cc(NS(=O)(=O)c2ccc(NC(NC(=O)C(C(F)(F)F)C(F)(F)F)(C(F)(F)F)C(F)(F)F)cc2)no1	> 100	> 100	> 100	> 100	> 100		> 100	> 100		
COP(=O)(OC)C(Nc1ccc(Cc2ccc(NC(c3ccco3)P(=O)(OC)OC)cc2)cc1)c1ccco1 (centres undefined)		> 100	35.7	> 100	89.9	56	> 100	> 100	> 100	
Cc1c(-c2ccccc2)[nH]n(C2=NCCN2)c1=O		> 100	> 100	> 100	> 100	> 100	> 100	> 100	> 100	
O=C(CC(C(=O)c1ccco1)c1ccco1)c1ccco1 (centres undefined)	> 100	> 100		> 100	> 100	> 100	> 100	> 100	> 100	
O=C1c2cccc(O)c2C(=O)c2c(OC3OC(CO)C(O)C(O)C3O)cccc21 (centres undefined)	59.6		> 100	> 100	> 100	> 100	51.3	49.1	40.5	
O=C1OC(c2ccccc2)N(C(=O)c2ccccc2)C1Cc1ccc(OCc2ccccc2)cc1 (centres undefined)	> 100	> 100	> 100	> 100	> 100	33.5	> 100	> 100		
Nc1ccc(-c2nn3c(COc4ccc(Cl)cc4)nnc3s2)cc1	> 100	> 100	> 100	> 100	> 100		> 100	> 100	> 100	10
CC(C)=CCC[C@@H](C)C1=C(O)C(N)=C(C)C(=O)C1=O	> 100	> 100	> 100	> 100	65.4	> 100	> 73.2	> 88.4		
CON(C)C(=O)C1CCCO1 (centres undefined)		> 100	> 100	> 100	> 100	> 100	> 100	> 100	> 100	
O=[N+]([O-])c1ccc2c(c1)c(N=NC(=S)Nc1ccc(Cl)cc1)c(O)n2CN1CCOCC1		28	26.3	20.8	16.4		21.7	20.8	23.2	
CN1CCN(C2=C(Cl)C3(OCCS3)C(F)(F)C2(F)F)CC1 (centres undefined)		> 100	> 100	> 100	> 100	> 100	> 100	> 100	> 100	
O=C1C=CC(=O)C(CNc2ccc(C(=O)OCc3ccccc3)cc2)=C1	31.6		30	32.1	12.9	23.5	20.8		2.87	
COc1cc([N+](=O)[O-])c(OC)c2c(Nc3ccc(S(=O)(=O)O)c4cc(S(=O)(=O)O)cc(S(=O)(=O)O)c34)cc(C)nc12		> 100	> 100	> 100		> 100	> 100	> 100	> 100	
O=[N+]([O-])c1cccc2c(N=Nc3ccc4ccccc4c3O)c(O)cc(S(=O)(=O)O)c12		66.7	> 100	> 100	> 100		51.2		> 100	
CCN1C(=O)C(=C/C=C/c2ccc(N(CC)CC)cc2)C(=O)N(CC)C1=S	> 100	> 100	> 100	> 100	> 100		> 100	> 100		
CC1(C)OC2COC3([C@@H]4OC(C)(C)O[C@@H]4CO)OC(C)(C)OC3C2O1 (some centres undefined)	> 100	> 100	> 100	> 100	> 100	> 100	> 100	> 100		
CC1(C)N=C2C(=O)c3c([nH]c4ccccc34)[C@]3(C)CCC1CC23 (some centres undefined)	> 6.25	> 6.25	> 6.25	> 6.25	> 6.25	> 6.25			> 6.25	
CC#CC(O)(C(=O)OC1CC(C)N(C)C(C)(C)C1)C1CCCC1 (centres undefined)	> 100	> 100		> 100	> 100		> 100	> 100	> 100	
